From patent US20260193285A1, “GRAMINE-PLATINUM (IV) COMPLEX AS WELL AS PREPARATION METHOD THEREFOR AND ANTI-TUMOR USE THEREOF” (TIANJIN MEDICAL UNIVERSITY CANCER INSTITUTE & HOSPITAL, priority 2022, published 2026)
“And” between values parts separate entries of the source, which are not always exact repeats. Equal values may be shown once.

Tests used:
[1] = system: 4T1-Luc tumor model; experiment: In vivo anti-tumor activity, breast cancer 4T1-Luc tumor model; settings: for final survival rate: dead includes body weight decrease of more than 20%
Description: Firstly, a 4T1-Luc tumor model was established using Balb/c female mice 4-5 weeks old. After the tumor volume reached […], the mice were randomly divided into four groups, namely Solvent, Cisplatin, Cisplatin+Gramine, and Compound c groups, respectively. The drugs were formulated at a Pt concentration of 2.0 mg/kg, once every 3 days and six times in total, while the body weight and tumor volume of the mice were measured every 2 days. The mice were sacrificed and the organs (heart, liver, spleen, lung, kidney) and tumors thereof were excised. The organs and tumors were used for H&E staining, immunohistochemical staining, and ICP-MS determination of platinum content.

[2] = system: Patient-derived xenografts (PDXs) of pancreatic cancer; experiment: In vivo anti-tumor activity, pancreatic cancer PDX model; settings: for final survival rate: dead includes body weight decrease of more than 20%; for tumor inhibition rate at the treatment endpoint: Pt 3.0 mg/kg once every 3 days, five times
Description: Patient-derived xenografts (PDXs) were used. Fresh tumor tissue from a patient was treated and transplanted subcutaneously into the groin of immunodeficient NOD-SCID IL-2 receptor gamma null (NSG) mice. […] The successfully transplanted tumor was passaged for 3 passages or more in NSG mice to obtain mouse models for experiments. […] The drugs were formulated at a Pt concentration of 3.0 mg/kg, once every 3 days and five times in total, while the body weight and tumor volume of the mice were measured every 3 days. The mice were sacrificed and the organs (heart, liver, spleen, lung, kidney) and tumors thereof were excised. The organs and tumors were used for ICP-MS determination of platinum content.

[3] = system: KPC tumor model; experiment: In vivo anti-tumor activity, pancreatic cancer KPC model; settings: for final survival rate: dead includes body weight decrease of more than 20%; for tumor inhibition rate at the treatment endpoint: Pt 3.0 mg/kg once every 3 days, five times; for PD-1 level in tumors (flow cytometry): solvent control 15.7%
Description: Firstly, a KPC tumor model was established using C57BL/6 female mice 4-5 weeks old. […] The drugs were formulated at a Pt concentration of 3.0 mg/kg, once every 3 days and five times in total, while the body weight and tumor volume of the mice were measured every 3 days. The mice were sacrificed and the organs (heart, liver, spleen, lung, kidney) and tumors thereof were excised. The tumors were used for flow cytometry to determine the content of immune cells.

[4] = system: MCF-7 (human breast cancer cells); experiment: In vitro anti-tumor activity assay (MTT), MCF-7; type: cell-based; settings: average of multiple measurements
Text: (§1) In this assay, the anti-tumor activity of the synthesized compounds was studied by MTT (3-(4,5-dimethylthiazolyl-2)-2,5-diphenyltetrazolium bromide) method. Eight kinds of cancer cells including MDA-MB-231 (human breast cancer cells), MCF-7 (human breast cancer cells), HCT-116 (human colon cancer cells), HeLa (human cervical cancer cells), FaDu (human pharyngeal squamous carcinoma cells), 5637 (human bladder cancer cells), OVCAR3 (human ovarian cancer cells), HCCC9810 (human liver cancer cells) and one normal human cell line LO2 (human liver cells) were used in this assay to perform experimental research on cytotoxicity. All cell lines were cultured in an incubator with 5% CO2 and saturated humidity at 37° C. The specific experimental steps were as follows:
(§2) The cells in logarithmic growth phase were collected, counted, adjusted to a cell concentration of 3× 10^4 cells/mL, and then seeded into a 96-well plate at 100 μL/well. The blank group (Blank, pure medium group) and the control group (Control, no drug group) were set up. The plate was cultured overnight in a cell culture incubator. After adhesion, the compounds were diluted with culture medium and added to the first column of administration wells at a desired concentration for these wells, followed by the 2-fold serial dilution and administration in subsequent wells, and pipetted gently to mix well. After incubation for 72 hours, 10 μL of MTT solution (5 mg/mL) was added to each well. After cultivation in the incubator for another 4 hours, the supernatant was removed, and DMSO was added at 100 μL/well. After shaking thoroughly, the OD value was measured using a microplate-reader at […]. Three independently repeated experiments were carried out to ensure the reliability of the experimental results.

[5] = system: LO2 (human liver cells); experiment: Cytotoxicity (MTT) on normal cell line LO2; type: cell-based; settings: 72 hours
Text: as §1, §2

[6] = system: MDA-MB-231 (human breast cancer cells); experiment: In vitro anti-tumor activity assay (MTT), MDA-MB-231; type: cell-based; settings: for IC50: 72 hours, MTT, average of multiple measurements
Text: as §1, §2

[7] = system: HeLa (human cervical cancer cells); experiment: In vitro anti-tumor activity assay (MTT), HeLa; type: cell-based; settings: 72 hours, average of multiple measurements
Text: as §1, §2

[8] = system: HCT-116 (human colon cancer cells); experiment: In vitro anti-tumor activity assay (MTT), HCT-116; type: cell-based; settings: average of multiple measurements
Text: as §1, §2

[9] = system: pancreatic cancer cells CFPAC-1; experiment: CCK-8 inhibition of pancreatic cancer cells, CFPAC-1; type: cell-based; settings: CCK-8, 72 hours
Description: (§3) In this experiment, CCK-8 was used to study the proliferation activity of pancreatic cancer cells SU86.86, MIA-PaCa2, SW1990, CFPAC-1 and BxPC-3. All cell lines were cultured in an incubator with 5% CO2 and saturated humidity at 37° C. The experimental steps were as follows:
(§4) The cells in logarithmic growth phase were collected, counted, adjusted to a cell concentration of 3×10^4 cells/mL, and then seeded into a 96-well plate at 100 μL/well. The blank group (Blank, medium group without cells) and the control group (Control, medium group with cells) were set up. After the cells in the culture plate were cultured overnight in the incubator with saturated humidity at 37° C. and adhered, the compounds were diluted with culture medium and added to the first column of administration wells at a desired concentration for these wells, followed by the 2-fold serial dilution and administration at 18 concentrations in total, and pipetted gently to mix well. After incubation for 72 hours, 10 μL of CCK8 solution (5 mg/mL) was added to each well. After cultivation in the incubator for another 4 hours, the OD value was measured using a microplate-reader at λ=450 nm.

[10] = system: pancreatic cancer cells SW1990; experiment: CCK-8 inhibition of pancreatic cancer cells, SW1990; type: cell-based; settings: CCK-8, 72 hours
Description: as §3, §4

[11] = system: pancreatic cancer cells MIA-PaCa2; experiment: CCK-8 inhibition of pancreatic cancer cells, MIA-PaCa2; type: cell-based; settings: CCK-8, 72 hours
Description: as §3, §4

[12] = system: pancreatic cancer cells BxPC-3; experiment: CCK-8 inhibition of pancreatic cancer cells, BxPC-3; type: cell-based; settings: CCK-8, 72 hours
Description: as §3, §4

[13] = system: pancreatic cancer cells SU86.86; experiment: CCK-8 inhibition of pancreatic cancer cells, SU86.86; type: cell-based; settings: CCK-8, 72 hours
Description: as §3, §4

[14] = system: pancreatic cancer organoids from patients; experiment: In vitro organoid activity assay, pancreatic cancer; type: cell-based, human; settings: 96 hours, CellTiter-Glo 3D, one value per case; read-out: IC50 in organoid models of 2 cases of pancreatic cancer
Description: (§5) The experimental steps were as follows:
(§6) Tumor samples were obtained from the patients undergoing surgery for breast cancer and pancreatic cancer, and digested with tumor dissociation kits. Tumor suspensions were collected and centrifuged to obtain tumor organoids. Complete culture medium for breast cancer or pancreatic cancer organoids was added to the organoid models which were cultured and passaged under the culture conditions of 5% CO2 and saturated humidity at 37° C. The organoids in logarithmic growth phase were collected, counted, resuspended in Matrigel at an organoid concentration of 5×10^4 cells/mL, and then seeded into a 96-well plate at 20 μL/well, followed by further addition of 80 μL of complete medium. The blank group (Blank, medium group without organoids) and the control group (Control, medium group with organoids) were set up. After the organoids were cultured overnight in an incubator with 5% CO2 at 37° C. and adhered, 200 μL of the culture medium containing the drug at a concentration of 20 μM was added to the first administration well, followed by the 2-fold serial dilution and administration, and pipetted gently to mix well. After incubation for 96 hours, representative photos were taken for each well using an inverted microscope, and 10 μL of CellTiter-Glo 3D Reagent (Promega) solution was added to each well to detect the organoid viability.

[15] = system: FaDu (human pharyngeal squamous carcinoma cells); experiment: In vitro anti-tumor activity assay (MTT), FaDu; type: cell-based; settings: 72 hours, average of multiple measurements
Text: as §1
(§7) The cells in logarithmic growth phase were collected, counted, adjusted to a cell concentration of 3× 10^4 cells/mL, and then seeded into a 96-well plate at 100 μL/well. The blank group (Blank, pure medium group) and the control group (Control, no drug group) were set up. The plate was cultured overnight in a cell culture incubator. […] After shaking thoroughly, the OD value was measured using a microplate-reader at 2=570 nm. […]

[16] = system: 5637 (human bladder cancer cells); experiment: In vitro anti-tumor activity assay (MTT), 5637; type: cell-based; settings: 72 hours, average of multiple measurements
Text: as §1, §7

[17] = system: OVCAR3 (human ovarian cancer cells); experiment: In vitro anti-tumor activity assay (MTT), OVCAR3; type: cell-based; settings: 72 hours, average of multiple measurements, read-out: IC50 OVCRA3
Text: as §1, §7

[18] = system: breast cancer organoids from patients; experiment: In vitro organoid activity assay, breast cancer; type: cell-based, human; settings: 96 hours, CellTiter-Glo 3D, one value per case; read-out: IC50 in organoid models of 2 cases of breast cancer
Description: as §5, §6

[19] = system: HCCC9810 (human liver cancer cells); experiment: In vitro anti-tumor activity assay (MTT), HCCC9810; type: cell-based; settings: 72 hours, average of multiple measurements, read-out: IC50 HCCC 9810
Text: as §1, §7

[20] = 4T1-Luc, Pt 2.0 mg/kg once every 3 days, six times
[21] = pancreatic cancer PDX, Pt 3.0 mg/kg
[22] = pancreatic cancer KPC, Pt 3.0 mg/kg

Molecule | H&E staining: damage to tumor tissues ([1]; 4T1-Luc, Pt 2.0 mg/kg) | final survival rate ([1]; 4T1-Luc, Pt 2.0 mg/kg) [%] | final survival rate [2, 21] [%] | final survival rate [3, 22] | IC50 [5] [µM] | IC50 [9] [µM] | IC50 [10] [µM] | IC50 ([4]; 72 hours) [µM] | IC50 [11] [µM] | IC50 [12] [µM] | IC50 [13] [µM] | IC50 [6] [µM] | IC50 [7] [µM] | body weight change of mice [2, 21] | tumor inhibition rate at the treatment endpoint ([2]; pancreatic cancer PDX) [%] | tumor inhibition rate at the treatment endpoint ([3]; pancreatic cancer KPC) [%] | PD-1 level in tumors (flow cytometry) [3, 22] [%] | IC50 ([8]; 72 hours) [µM] | other results
CCCCCCCCCCCCNC(=O)[O][Pt]([NH2])([NH2])([Cl])([Cl])[O]C(=O)CCC(=O)n1cc(CN(C)C)c2ccccc21 [Compound c] | severe damage to tumor tissues | 100 | 100 | 100% | – | – | – | – | – | – | – | – | – | – | – | – | – | – | immunohistochemical staining of mouse spleens (CD4+, CD8+, Foxp3 Treg cells) ([1]; 4T1-Luc, Pt 2.0 mg/kg): increasing the number of CD4+ and CD8+ cells, while decreasing the number of Treg cells; tumor growth (tumor volume, tumor weight) [1, 20]: significantly inhibited tumor growth; platinum accumulation in tissues (ICP-MS) ([1]; mouse, in vivo): significantly decreased the accumulation in the kidney and spleen; body weight change of mice ([2]; mouse, in vivo): weight recovery and stability from Day 9 post-treatment; platinum accumulation in tissues (ICP-MS) ([2]; mouse, in vivo): significantly decreased the accumulation in the kidney and spleen; body weight change of mice ([3]; mouse, in vivo): substantially stable body weight
CN(C)Cc1c[nH]c2ccccc12 [GM, gramine] | – | – | – | – | > 100 | – | – | – | – | – | – | – | – | – | – | – | – | – | IC50 ([4]; Homo sapiens, MCF7, 72 hours): > 100 µM; IC50 ([6]; Homo sapiens, MDA-MB-231): > 100 µM; IC50 ([7]; Homo sapiens, HeLa): > 100 µM; IC50 ([8]; Homo sapiens, HCT-116, 72 hours): > 100 µM
O=C1[O][Pt]2([NH][C@@H]3CCCC[C@H]3[NH]2)[O]C1=O [OXP, oxaliplatin] | – | – | 60 | – | 27.2 | 200 | 2.8 | 17.5 | 2 | 1.37 | 8.02 | 28.2 | 14.6 | significant decline all the time | 68.82 | 64.76 | 21.0 | 9.98 | IC50 [14]: 12.7 µM and > 20 µM
cisplatin [CDDP] | severe damage to tumor tissues | 16.67 | 40 | all died finally | 3.99 | 603 | 500 | 5.9 | 500 | 420 | 127 | 15.8 | 4.94 | significant decline all the time | 32.68 | 55.67 | 24.3 | 8.79 | IC50 [15]: 1.57 µM; IC50 [16]: 1.35 µM; IC50 [17]: 1.93 µM; H&E staining: damage to mouse organs ([1]; 4T1-Luc, Pt 2.0 mg/kg): severe damage to the spleen, kidney, and liver; body weight change of mice [1, 20]: significant decline; selectivity index IC50 (LO2)/IC50 (MDA-MB-231) ([6]; tumor cell line MDA-MB-231 versus normal cell line LO2): 0.25; body weight change of mice [3, 22]: more significant decline; IC50 [18]: > 20 µM; IC50 [19]: 5.55 µM
